“And” between values parts separate entries of the source, which are not always exact repeats. Identical values can stand only once. Square brackets hold non-standard residues; d marks the D form. Peptide text beside a SMILES is read from it. ξ: configuration not given here. Ile(3ξ) = CCC(C)[C@H](N)C(=O)O; Thr(3ξ) = CC(O)[C@H](N)C(=O)O; Nle = CCCC[C@H](N)C(=O)O
Test system: healthy adult volunteers
Experiment: Multiple dose study in healthy volunteers (Examples 4 and 7), pharmacodynamics: plasma citrulline, Bristol stool scale, body weight
Type: in vivo, human
Protocol: The endogenous marker citrulline was selected to assess the pharmacodynamic effect of apraglutide. Citrulline was detected in all baseline and post-dose samples. Three baseline citrulline samples were obtained during two baseline visits between screening and the first dosing day and before dosing on the first dosing day. […] At baseline, the mean citrulline range was 5.3825-5.6207 μg/mL for placebo, 5.3900-6.2028 μg/mL for 1 mg apraglutide, 4.8983-5.3023 μg/mL for 5 mg apraglutide and 5.0730-5.4690 μg/mL for 10 mg apraglutide. In the placebo group, the mean citrulline concentration remained relatively stable over the trial, ranging from 4.9735 to 5.8253 μg/mL.
In short, the first contrast tested compared the mean Rpre-dose at the first time point (week 1) to the pooled mean Rpre-dose over all remaining time points (week 2 to 6). The second contrast compared the mean at week 2 to the pooled mean over week 3 to 6, etc. Testing continued until the contrast was not statistically significant. The mean Rpre-dose at week 6 for 10 mg against mean Rpre-dose over week 5 (0.8720, 95% CI: 0.1590; 1.5850 and p=0.0172) was statistically significant.
Besides citrulline, the Bristol stool scale and body weight were assessed as pharmacodynamic endpoints. In contrast to citrulline and weight, the Bristol stool scale is a discrete variable. Subjects assessed their stool in the past 24 hours using the Bristol stool scale ranging from constipation (type 1) to diarrhea (type 7). No stool in the past 24 hours was recorded as zero. As two subjects (assigned to either 1 or 5 mg) reported no stool preceding the first dose, the screening Bristol stool scale score was also taken into account when determining the baseline Bristol stool scale score.
Citrulline, BSS and weight data are analyzed with a mixed model analysis of variance with fixed factors treatment, time and treatment by time, random factor subject, and the average prevalue as covariate. The average pre-value was calculated from all pre-values after screening and before dosing, except for BSS, where the screening value was also used to calculate the average baseline.
For all pharmacodynamic endpoints (citrulline, Bristol stool scale and weight), the pre-value has been used as covariate. The average pre-value was calculated from all pre-values after screening and before dosing, except for the Bristol stool scale, where the screening value was also used to calculate the average baseline. The average pre-value of citrulline was also used as covariate in the MCP-MOD, except in the Sigmoid Emax model. This was addressed by subtracting the pre-value times the slope of the linear model of the MCP part from the values of week 6.

[1] = 1 mg, over the whole trial period
[2] = 5 mg, over the whole trial period
[3] = 10 mg, over the whole trial period (N = 5)

## CCCC[C@H](NC(=O)[C@H](CCC(=O)O)NC(=O)[C@H](CC(=O)O)NC(=O)[C@H](CO)NC(=O)[C@H](Cc1ccccc1)NC(=O)[C@H](CO)NC(=O)CNC(=O)[C@H](CC(=O)O)NC(=O)CNC(=O)[C@@H](N)Cc1c[nH]cn1)C(=O)N[C@H](Cc1ccccc1)C(=O)N[C@H](C(=O)N[C@H](C(=O)N[C@@H](CC(C)C)C(=O)N[C@@H](CC(=O)O)C(=O)N[C@@H](CC(C)C)C(=O)N[C@@H](CC(C)C)C(=O)N[C@@H](C)C(=O)N[C@@H](C)C(=O)N[C@@H](CCCNC(=N)N)C(=O)N[C@@H](CC(=O)O)C(=O)N[C@@H](Cc1ccccc1)C(=O)N[C@H](C(=O)N[C@@H](CC(N)=O)C(=O)N[C@@H](Cc1c[nH]c2ccccc12)C(=O)N[C@@H](CC(C)C)C(=O)N[C@H](C(=O)N[C@@H](CCC(N)=O)C(=O)N[C@H](C(=O)N[C@@H](CCCCN)C(=O)N[C@H](C(=O)N[C@H](C(=O)N[C@@H](CC(=O)O)C(N)=O)C(C)O)C(C)CC)C(C)O)C(C)CC)C(C)CC)C(C)CC)C(C)O (stereo partly drawn) [apraglutide, L-histidyl-glycyl-L-aspartyl-glycyl-L-seryl-L-phenylalanyl-L-seryl-L-aspartyl-L-glutamyl-L-norleucyl-D-phenylalanyl-L-threonyl-Lisoleucyl-L-leucyl-L-aspartyl-L-leucyl-L-leucyl-L-alanyl-L-alanyl-L-arginyl-L-aspartyl-L-phenylalanyl-L-isoleucyl-L-asparaginyl-Ltryptophanyl-L-leucyl-L-isoleucyl-L-glutaminyl-L-threonyl-L-lysyl-L-isoleucyl-L-threonyl-Laspartic acid amide] (H-HGDGSFSDE[Nle][dF][Thr(3ξ)][Ile(3ξ)]LDLLAARDF[Ile(3ξ)]NWL[Ile(3ξ)]Q[Thr(3ξ)]K[Ile(3ξ)][Thr(3ξ)]D-NH2)
1 mg
  Difference between mean Rmax over the whole trial and Rmax after last dose: 0.1016 µg/mL
1 mg - 5 mg
  Bristol stool scale with zeroes set to missing, estimate of the difference: 0.2
  Bristol stool scale, estimate of the difference: −0.1
  Citrulline, estimate of the difference: 0.9429 µg/mL
  Weight, estimate of the difference: -0.115 kg
1 mg - 10 mg
  Bristol stool scale with zeroes set to missing, estimate of the difference: 0.1
  Bristol stool scale, estimate of the difference: 0.3
  Citrulline, estimate of the difference: 1.3198 µg/mL
  Weight, estimate of the difference: 0.419 kg
1 mg group (2 subjects)
  No stool in the past 24 hours, number of reports: 6 times
1 mg, after four days
  Highest mean citrulline value following the first weekly SC dose: 6.3920 µg/mL
1 mg, after last dose 6
  Citrulline Rtmax, median: 2.0 days
1 mg, last dose 1
  Citrulline Rpre-dose, arithmetic mean ± SD: 5.8075 ± 1.3328 µg/mL
  Citrulline Rpre-dose, geometric mean: 5.6723 µg/mL
1 mg, last dose 2
  Citrulline Rpre-dose, arithmetic mean ± SD: 6.2605 ± 1.2331 µg/mL
  Citrulline Rpre-dose, geometric mean: 6.1526 µg/mL
1 mg, last dose 3
  Citrulline Rpre-dose, arithmetic mean ± SD: 6.4913 ± 1.8297 µg/mL
  Citrulline Rpre-dose, geometric mean: 6.2752 µg/mL
1 mg, last dose 4
  Citrulline Rpre-dose, arithmetic mean ± SD: 6.0050 ± 1.5790 µg/mL
  Citrulline Rpre-dose, geometric mean: 5.8213 µg/mL
1 mg, last dose 5
  Citrulline Rpre-dose, arithmetic mean ± SD: 6.4128 ± 1.8032 µg/mL
  Citrulline Rpre-dose, geometric mean: 6.2097 µg/mL
1 mg, last dose 6
  Citrulline Rmax, arithmetic mean ± SD: 7.1702 µg/mL
  Citrulline Rmax, geometric mean: 7.0069 µg/mL
  Citrulline Rpre-dose, arithmetic mean ± SD: 6.3120 ± 1.6694 µg/mL
  Citrulline Rpre-dose, geometric mean: 6.1166 µg/mL
1 mg, last dose 6, listed as Apraglutide
  Citrulline Rmax, arithmetic mean ± SD: 7.1702 ± 1.6611 µg/mL
[1]
  Citrulline Rmax, arithmetic mean ± SD: 7.2718 ± 1.6959 µg/mL
  Citrulline Rmax, geometric mean: 7.1036 µg/mL
1 mg, whole trial period, from first dose
  Citrulline Rtmax, median: 35.9 days
5 mg
  Difference between mean Rmax over the whole trial and Rmax after last dose: 0.0973 µg/mL
5 mg - 10 mg
  Bristol stool scale with zeroes set to missing, estimate of the difference: −0.0
  Bristol stool scale, estimate of the difference: 0.5
  Citrulline, estimate of the difference: 0.3769 µg/mL
  Weight, estimate of the difference: 0.534 kg
5 mg group (4 subjects)
  No stool in the past 24 hours, number of reports: 13 times
5 mg, after four days
  Highest mean citrulline value following the first weekly SC dose: 7.1933 µg/mL
5 mg, after last dose 6
  Citrulline Rtmax, median: 3.9 days
5 mg, last dose 1
  Citrulline Rpre-dose, arithmetic mean ± SD: 6.7695 ± 1.5288 µg/mL
  Citrulline Rpre-dose, geometric mean: 6.5967 µg/mL
5 mg, last dose 2
  Citrulline Rpre-dose, arithmetic mean ± SD: 7.0082 ± 1.1330 µg/mL
  Citrulline Rpre-dose, geometric mean: 6.9208 µg/mL
5 mg, last dose 3
  Citrulline Rpre-dose, arithmetic mean ± SD: 6.6155 ± 1.2790 µg/mL
  Citrulline Rpre-dose, geometric mean: 6.5109 µg/mL
5 mg, last dose 4
  Citrulline Rpre-dose, arithmetic mean ± SD: 6.6227 ± 1.2247 µg/mL
  Citrulline Rpre-dose, geometric mean: 6.5313 µg/mL
5 mg, last dose 5
  Citrulline Rpre-dose, arithmetic mean ± SD: 6.8307 ± 1.2369 µg/mL
  Citrulline Rpre-dose, geometric mean: 6.7248 µg/mL
5 mg, last dose 6
  Citrulline Rmax, arithmetic mean ± SD: 8.1577 µg/mL
  Citrulline Rmax, geometric mean: 8.0024 µg/mL
  Citrulline Rpre-dose, arithmetic mean ± SD: 7.2498 ± 1.2461 µg/mL
  Citrulline Rpre-dose, geometric mean: 7.1475 µg/mL
5 mg, last dose 6, listed as Apraglutide
  Citrulline Rmax, arithmetic mean ± SD: 8.1577 ± 1.7108 µg/mL
[2]
  Citrulline Rmax, arithmetic mean ± SD: 8.2550 ± 1.7807 µg/mL
  Citrulline Rmax, geometric mean: 8.0870 µg/mL
5 mg, whole trial period, from first dose
  Citrulline Rtmax, median: 38.9 days
10 mg
  Difference between mean Rmax over the whole trial and Rmax after last dose: 0.0362 µg/mL
10 mg group (1 subject)
  No stool in the past 24 hours, number of reports: 1 time
10 mg, Helmert's approach
  Steady-state contrast: mean citrulline Rpre-dose at week 6 against week 5: 0.8720
10 mg, after 7 days
  Highest mean citrulline value following the first weekly SC dose: 7.8487 µg/mL
10 mg, after last dose 6 (N = 5)
  Citrulline Rtmax, median: 3.9 days
10 mg, last dose 1
  Citrulline Rpre-dose, arithmetic mean ± SD: 7.8487 ± 2.7273 µg/mL
  Citrulline Rpre-dose, geometric mean: 7.4048 µg/mL
10 mg, last dose 2
  Citrulline Rpre-dose, arithmetic mean ± SD: 7.6058 ± 2.3210 µg/mL
  Citrulline Rpre-dose, geometric mean: 7.2438 µg/mL
10 mg, last dose 3
  Citrulline Rpre-dose, arithmetic mean ± SD: 7.5180 ± 2.1369 µg/mL
  Citrulline Rpre-dose, geometric mean: 7.2331 µg/mL
10 mg, last dose 4 (N = 5)
  Citrulline Rpre-dose, arithmetic mean ± SD: 7.2060 ± 2.5488 µg/mL
  Citrulline Rpre-dose, geometric mean: 6.8103 µg/mL
10 mg, last dose 5 (N = 5)
  Citrulline Rpre-dose, arithmetic mean ± SD: 7.1994 ± 2.5111 µg/mL
  Citrulline Rpre-dose, geometric mean: 6.7908 µg/mL
10 mg, last dose 6 (N = 5)
  Citrulline Rmax, arithmetic mean ± SD: 8.7254 µg/mL
  Citrulline Rmax, geometric mean: 8.2533 µg/mL
  Citrulline Rpre-dose, arithmetic mean ± SD: 8.0714 ± 3.0514 µg/mL
  Citrulline Rpre-dose, geometric mean: 7.5618 µg/mL
10 mg, last dose 6 (N = 5), listed as Apraglutide
  Citrulline Rmax, arithmetic mean ± SD: 8.7254 ± 3.0145 µg/mL
[3]
  Citrulline Rmax, arithmetic mean ± SD: 8.7616 ± 2.9900 µg/mL
  Citrulline Rmax, geometric mean: 8.2953 µg/mL
10 mg, two subjects
  Citrulline Rt1/2, individual subjects: 6.5 days and 11.0 days
10 mg, whole trial period, from first dose (N = 5)
  Citrulline Rtmax, median: 36.9 days
1, 5 or 10 mg
  Time after first dose at which increases in citrulline were observed: 2 days
Placebo - 1 mg
  Bristol stool scale with zeroes set to missing, estimate of the difference: −0.6
  Bristol stool scale, estimate of the difference: −0.9
  Weight, estimate of the difference: -0.750 kg
Placebo - 1 mg, 6 weekly SC doses
  Citrulline, estimate of the difference: 0.3146 µg/mL
Placebo - 1 mg, 6 weekly SC doses, listed as Apraglutide
  Citrulline, estimate of the difference: 0.31 [95% CI: −0.4371; μg/mL
Placebo - 5 mg
  Bristol stool scale with zeroes set to missing, estimate of the difference: −0.4
  Bristol stool scale, estimate of the difference: −1.0
  Weight, estimate of the difference: -0.865 kg
Placebo - 5 mg, 6 weekly SC doses
  Citrulline, estimate of the difference: 1.2574 µg/mL
Placebo - 5 mg, 6 weekly SC doses, listed as Apraglutide
  Citrulline, estimate of the difference: 1.26 [95% CI: 0.5037; μg/mL
Placebo - 10 mg
  Bristol stool scale with zeroes set to missing, estimate of the difference: −0.5
  Bristol stool scale, estimate of the difference: −0.6
  Weight, estimate of the difference: -0.331 kg
Placebo - 10 mg, 6 weekly SC doses
  Citrulline, estimate of the difference: 1.6343 µg/mL
Placebo - 10 mg, 6 weekly SC doses, listed as Apraglutide
  Citrulline, estimate of the difference: 1.63 [95% CI: 0.8809; μg/mL
Week 6
  Variability in citrulline Rmax explained by AUCtau (R squared): 26%
Week 6, regression line
  Increase of maximum citrulline response per 100 d*ng/mL increase in AUCtau: 390 ng/mL
